“Also recorded” adds a separate entry of the source.
Key:
AChE = AChE catalytic activity (Ellman) in RAW 264.7 cells; assay type: cell-based, murine
AChmiRNA [1] = test system: AChmiRNA; set-up: species or system mice; settings: mouse
AChmiRNA (miRNA-181a) = AChmiRNA (miRNA-181a) level by real-time RT-PCR in Meg-01 cells; assay type: cell-based, human
Meg-01 cells [2] = assay: Scanning electron microscopy of Meg-01 cell surface (megakaryocytic maturation); assay type: cell-based, human; settings: 24 hour treatment
Meg-01 cells [3] = assay: Ploidy / DNA content of Meg-01 cells by FACS and propidium iodide; assay type: cell-based, human; settings: 72 hours
Meg-01 cells [4] = assay: Nuclear area measurement of Meg-01 cells; assay type: cell-based, human; settings: 24 hours
AChE-R mRNA = AChE-R mRNA level (RT-PCR, fluorescent in situ hybridization) in Meg-01 cells; assay type: cell-based, human; settings: for AChE-R mRNA level by FISH (population distribution): agent alone; for AChE-R mRNA level on co-administration with Thapsi: Thapsi 10 nM plus oligo 100 nM
AChE-S mRNA = AChE-S mRNA level (fluorescent in situ hybridization) in Meg-01 cells; assay type: cell-based, human; settings: for AChE-S mRNA level by FISH: agent alone; for AChE-S mRNA level on co-administration with Thapsi: Thapsi 10 nM plus oligo 100 nM
AChE-R = AChE-R protein immunocytochemistry in Meg-01 cells; assay type: cell-based, human; settings: 24 hours
AChE-S = AChE-S protein immunocytochemistry in Meg-01 cells; assay type: cell-based, human; settings: 24 hours
activated caspase-3 = assay: Activated caspase-3 immunostaining in Meg-01 cells; assay type: cell-based, human; settings: 24 hours, agent alone
activated caspase-9 = assay: Activated caspase-9 immunostaining in Meg-01 cells; assay type: cell-based, human
Bcl-2 = Bcl-2 immunostaining in Meg-01 cells; assay type: cell-based, human
Meg-01 cells [5] = assay: DNA fragmentation by TUNEL assay in Meg-01 cells; assay type: cell-based, human
Meg-01 cells [6] = assay: Adhesion assay of MEG-01 cells; assay type: cell-based, human; settings: 72 hours
c-Myc = c-Myc immunohistochemistry in Meg-01 cells; assay type: cell-based, human
ASF/SF2 [7] = assay: Splice factor ASF/SF2 in Meg-01 cells; assay type: cell-based, human; settings: data not shown
PKCβII = PKCβII immunocytochemistry in Meg-01 cells; assay type: cell-based, human; settings: 24 hours
[8] = test system: Murine macrophage RAW 264.7 cells; assay: Nitric oxide production (nitrite, Griess) by RAW 264.7 macrophages; assay type: cell-based
Procedure: Murine macrophage RAW 264.7 cells were cultured in 48 well plates (50×10^3 cells per well). The production of NO by these macrophages was examined following various stimuli (6 repetitions for each treatment) at three time intervals (6, 12 and 24 hours) as depicted in FIGS. 27a, 27b and 27c.
Mouse RAW cells, human U937 cells and primary human macrophages were treated for 24 h with 1 μM CpG oligonucleotides or 1 μg/ml bacterial lipopolysaccharide added to standard growth medium
Interleukin 6 expression was assayed by QRT-PCR, nitric oxide was measured by Griess assay and prostaglandin E2 levels were measured by R&D ELISA kit according to manufacturer's instructions.

AChmiRNA [9] = assay: AChmiRNA expression in human PBMC (quantitative RT-PCR); assay type: cell-based
TBP = TBP transcript in human PBMC (real-time RT-PCR); assay type: cell-based
BDP1 = BDP1 transcript in human PBMC (real-time RT-PCR); assay type: cell-based
ASF/SF2 [10] = assay: Splicing factor ASF/SF2 in human PBMC (real-time RT-PCR); assay type: cell-based
macrophage miRNAs = assay: Spotted microarray miRNA profile of primary human macrophages; assay type: cell-based
From the text: Macrophages were isolated from buffy coats from healthy donors, underwent pooling that elicited mixed leukocyte response (MLR) and subjected in vitro to several distinct agents or combinations thereof, some known to elicit macrophage activation (listed in Table 2, hereinbelow).
The mirVana (Ambion, Austin, Tex.) oligonucleotide set was used to construct the in-house array. The microarray carried 200 spotted probes complementary to known human and mouse miRNAs. To compose the array, the mirVana probeset was dissolved in 3×SSC to a final concentration of […], and printed on Ultragaps slides (Corning, Corning, N.Y.), using the MicroGrid spotter (Genomic Solutions, Holliston, Mass.). The array layout contained 12 subgrids, each composed of 11 rows and 12 columns. Each oligonucleotide was spotted 6 times on the array. The experiments were designed for comparison of two samples. Data was therefore always relative rather than absolute. In these experiments, a “reference design” (Churchill, 2002, Nature genetics, 32, 490-495) was used, in which RNA from cells or tissues is compared. In addition, dye-swapping tests were performed, aimed to exclude dye-specific labeling differences (Dombkowski et al., 2004, FEBS Lett, 560, 120-124). Labeling was performed using the CyDye reactive dye pack (Amersham, NSW, Australia), as instructed. Pre-hybridization was in pre-heated S×SSC, 1% BSA, 0.1% SDS solution, at 42° C. for 45 min. Cy3 and Cy5-labeled fragmented RNA (3 ug each) were added to the hybridization solution (3×SSC, 0.1% SDS, 10 μg polyA, 20 μg tRNA), heated at 95° C. for 4 minutes for eliminating secondary structures and applied to the slides in hybridization chambers (Corning, N.Y., USA) for 15 h at 64° C. Hybridized slides were successively washed in: 1×SSC, 0.1% SDS (5 min); 0.1×SSC, 0.1% SDS (5 min) and 0.1×SSC (3×1.5 min) and were dried by centrifugation (˜1000 g).
This was adapted from (Ben-Ari S, et al., J. Neurochem. 2006 April; 97 Suppl 1:24-34.) Briefly, an Affymetrix 428 Array Scanner was used at the maximum gain setting, at the wavelengths of 532 nm and 650 nm Scans were controlled by the “Jaguar” software (Affymetrix, Calif., USA), saved as TIFF files and exported to the “Imagene” program (Biodiscovery Inc, CA, USA) to define the spots, convert the intensity signals into numbers and calculate quality parameters such as “shape regularity”, “empty spot” etc. Data normalization, exclusion of unreliable spots and combining the information from all 4 slides were performed in an in-house Matlab program. First, median background was subtracted from the median signal intensity, to normalize background noises. Background area was defined as a circle of 5 pixels diameter separated from the signal area by 4 pixels. […]. Spot quality was examined according to pre-defined Imagene's parameters, standard deviation of pixels intensity in each spot etc. Spots with intensities below the threshold derived from the negative control spots or with saturated pixel values were excluded. The Cy3 and Cy5 signal intensities of each spot were normalized to the mean Cy3 and Cy5 intensities in the slide. For each spot, an initial Cy3/Cy5 ratio has been calculated, and was transformed to a log 2 basis. This value was designated LR (log 2 ratio). […]. Then, results from all valid spots (up to 6) representing the same oligonucleotide were combined. Probes with less than 3 valid spots were excluded, and median and mean LR were calculated.
Covariance between treatments was calculated in OpenOffice 1.1 for Mac OS X, using the entire miRNA collection represented on the chip (for signals that failed the MatLab analysis, a Median LR value of 0 was assigned).
The mirVana oligo set (Ambion, Austin, Tex.; Catalog number 1564V1) was used to construct our in-house array with >200 spotted probes complementary to known human and mouse miRs. […]

CD54 and CD40 = settings: cited from earlier work
miRNA181a = assay: Northern blot of miRNA181a in Meg-01 cells; assay type: cell-based, human; settings: in the presence or absence of Thapsi and/or AChmiON
Procedure: Cultured Meg-01 cells were co-incubated with thapsigargin (10 nM) and synthetic AChmiON (miR-181) (SEQ ID NO:23; at 100 nM) or anti-miR-181 (SEQ ID NO:24 (modified, identical in sequence to SEQ ID NO:2); at 100 nM.

C=CC[N+](C)(C)c1ccc(CCC(=O)CCc2ccc([N+](C)(C)CC=C)cc2)cc1.[Br-].[Br-] [BW284c51, 1,5-Bis(4-allyldimethylammoniumphenyl)pentan-3-one dibromide]
AChE activity (AChE; RAW 264.7 cells, 24 hr, LPS 1 μg/ml, BW 284 C51 10 μM (Example 13)): reduced AChE activity
AChE activity (AChE; macrophages (RAW 264.7), 1 micromolar BW284c51, 100 nanomolar CpG 1826): decrease

CN1CC=C(c2ccccc2)CC1 [MPTP, 1-Methyl-4-phenyl-1,2,3,6-tetrahydropyridine]
AChmiRNA levels in vivo (AChmiRNA [1]): decreases of AChmiRNA levels

C/C=C(/C)C(=O)O[C@H]1C(C)=C2[C@H]([C@@H]1OC(=O)CCCCCCC)[C@@](C)(OC(C)=O)C[C@H](OC(=O)CCC)[C@@]1(O)[C@H]2OC(=O)[C@@]1(C)O [Thapsi, Thapsigargin]
level of AChmiRNA (AChmiRNA (miRNA-181a); Meg-01 cells treated for 24 hours, agent alone): induced a decrease in AChmiRNA
decrease in the levels of AChmiRNA (AChmiRNA (miRNA-181a); Meg-01 cells, Thapsi treatment (ER-calcium release), real-time RT-PCR): 50%
cell surface morphology (scanning electron microscopy) (Meg-01 cells [2]): a very early stage in the formation of demarcation membranes
ploidy (DNA content) (Meg-01 cells [3]): a bigger fraction of cells became polyploid
nuclear area / nuclei size (Meg-01 cells [4]): increase in the nuclear area
AChE-R mRNA level (RT-PCR) (AChE-R mRNA; 24 hours): increasing the levels of AChE-R mRNA variant
AChE-R mRNA level by FISH (population distribution) (AChE-R mRNA): rightward shift in the population distribution of labeling intensity; also recorded: increase in AChE-R mRNA level
AChE-S mRNA level by FISH (AChE-S mRNA): decrease in AChE-S mRNA level
AChE-R protein level (immunohistochemistry) (AChE-R): increase also in the protein level
expression of the AChE-S variant (immunohistochemistry) (AChE-S): decrease of expression of the AChE-S variant
incidence of activated caspase-3 positive cells (activated caspase-3): increase in the incidence of activated caspase-3 positive cells
incidence of activated caspase-9 positive cells (activated caspase-9): increased the incidence of positive cells for activated caspase-9 immunostaining
immunoreactivity of Bcl-2 (Bcl-2): decrease in the immunoreactivity of Bcl-2
DNA fragmentation / cell death (TUNEL) (Meg-01 cells [5]): no significant changes
cell adhesion (Meg-01 cells [6]): increased adhesion of treated cells
c-myc expression (c-Myc; agent alone): c-myc increase induced by Thapsi
splice factor ASF/SF2 (ASF/SF2 [7]): induced
staining intensity for PKCβ (PKCβII): increased staining intensity for PKCβ

AChmiON: fully 2′-O-methylated oligonucleotide with the sequence of human/murine miRNA-181a (modified SEQ ID NO:23; unmodified SEQ ID NO:1) (AACAUUCAACGCUGUCGGUGAGU; all 2'-O-methyl, backbone not given here)
AChE-R mRNA level on co-administration with Thapsi (AChE-R mRNA): inhibiting the increase in AChE-R mRNA level
AChE-R mRNA level by FISH (population distribution) (AChE-R mRNA): levels remained unchanged
AChE-S mRNA level on co-administration with Thapsi (AChE-S mRNA): keeping AChE-S mRNA level above control values
AChE-S mRNA level by FISH (AChE-S mRNA): increased the fraction of cells with high AChE-S levels
DNA fragmentation / cell death (TUNEL) (Meg-01 cells [5]): increased incidence of positive cells; also recorded: significantly increased apoptosis
cell adhesion (Meg-01 cells [6]): suppressed this effect
Thapsi-induced c-myc increase on co-treatment (c-Myc; Thapsi plus AChmiON): could not prevent the c-myc increase induced by Thapsi
Thapsi-induced ASF/SF2 on co-treatment (ASF/SF2 [7]; Thapsi plus AChmiON): suppressed part of this effect
speed of the NO response ([8]; RAW 264.7, 6, 12 and 24 hours): slower than the response to LPS or IFN-γ
maximal NO effect relative to the LPS effect ([8]; RAW 264.7, 24 hour post-treatment, AChmiON 100 nM): about 80%
Nitrite concentration reflecting NO production ([8]; RAW 264.7, 24 hours, LPS 1 μg/ml, IFN-γ 4 ng/ml, oligos 100 nM): 38 µM
NO production versus control (in words) ([8]; RAW 264.7 macrophages): significantly up-regulated NO production

CpG ODN 2006
AChmiRNA expression (AChmiRNA [9]): suppressed
TBP transcript (TBP): suppressed
BDP1 transcript (BDP1): suppressed
splicing factor ASF/SF2 levels (ASF/SF2 [10]): reduced levels
similarity of effects on the miRNA profile (covariance) (macrophage miRNAs): invoke the closest effects on the miRNA profile
miR-132 expression (spotted microarray) (macrophage miRNAs; 24 h, 1 μg/ml LPS or ODN 2006 1 uM): consistently being up-regulated
extent of change in miRNA expression (miRNAs beyond median LR=0.25) (macrophage miRNAs; LPS 1 μg/ml, CpG 1 μM, EN101 1 μM): caused the greatest change
miR-17-5p expression (macrophage miRNAs; spotted array): down-regulated by CpG alone
miR-30a-3p and miR-372 expression (macrophage miRNAs; spotted array): consistently down-regulated
miRNAs down-regulated (macrophage miRNAs; spotted array): miR-9-1*, 26a-1, 27a, 33, 93, 140, 145, 185, 221, and 298
miRNAs up-regulated (macrophage miRNAs; spotted array): miR-183, 292-3p, 302c, 361, and 381
expression of CD54 and CD40 (CD54 and CD40): enhanced expression of CD54 and CD40

anti-AChmiRNA: antisense oligonucleotide complementary to AChmiRNA (SEQ ID NO:2; modified SEQ ID NO:24) (ACUCACCGACAGCGUUGAAUGUU; modified, pattern not given here)
AChE-R mRNA level on co-administration with Thapsi (AChE-R mRNA): maintaining the increase in AChE-R mRNA
AChE-S mRNA level on co-administration with Thapsi (AChE-S mRNA): prevented the Thapsigargin-induced suppression of AChE-S mRNA
DNA fragmentation / cell death (TUNEL) (Meg-01 cells [5]): normal level of TUNEL staining
level of AChmiRNA (miRNA181a) by Northern blot (miRNA181a): decreased the level of anti-AChmiRNA
level of AChmiRNA (miRNA181a) by Northern blot (miRNA181a; listed as anti-miR181): reducing the level of miRNA181a in the presence or absence of Thapsi and/or AChmiON

— patent publication US20130317092A1 (priority 2007, published 2013)
